Laboratory results as given in patent US20220257580A1, “TREATMENT OF C3 GLOMERULOPATHY USING A C5A INHIBITOR” (CHEMOCENTRYX, INC., priority 2020, published 2022).
Entries after “also recorded” stand apart in the source; their conditions may differ.

What was measured:
Format in all cases: in vivo, human
[1] = system: patients with C3 glomerulopathy; assay: Phase 2 placebo-controlled study (ACCOLADE): eGFR, urinary PCR, urinary MCP-1:creatinine ratio
Text: The secondary objectives of this study include assessment of: • 1. The safety of compound 1 compared to placebo based on the incidence of adverse events, changes in clinical laboratory measurements, and vital signs; • 2. Changes in laboratory parameters of renal disease including estimated glomerular filtration rate (eGFR), proteinuria, and urinary excretion of monocyte chemoattractant protein-1 (MCP-1) with compound 1 compared to placebo; • 3. Health-related quality-of-life changes based on Short Form-36 version 2 (SF-36 v2) and EuroQOL-5D-5L (EQ-5D-5L) with compound 1 compared to placebo; • 4. Evaluation of the pharmacokinetic profile of compound 1 in patients with C3 glomerulopathy. Patients will then be randomized, 1:1, to receive 30 mg compound 1 twice daily or matching placebo for 26 weeks in a double-blind, placebo-controlled manner. The 26-week double-blind period will be followed by a 26-week period during which all patients will receive compound 1 treatment. Efficacy assessments include: • 1. Renal histology to determine the C3G Histologic Index (CHI) for disease activity and chronicity; • 2. eGFR calculated by the Modification of Diet in Renal Disease (MDRD) equation from serum creatinine; • 3. First morning urinary PCR; • 4. First morning urinary MCP-1:creatinine ratio; • 5. EQ-5D-5L and SF-36 v2. Other efficacy endpoints include: • 1. The percent change from baseline in the CHI for disease chronicity over the placebo-controlled 26-week treatment period; • 2. The change and percent change from baseline in eGFR over the placebo-controlled 26-week treatment period; • 3. The percent change from baseline in urinary PCR over the placebo-controlled 26-week treatment period; • 4. The percent change from baseline in urinary MCP-1:creatinine ratio over the placebo-controlled 26-week treatment period; • 5. Change from baseline in EQ-5D-5L and SF-36 v2 (domains and component scores) over the placebo-controlled 26-week treatment period. Continuous variables, including eGFR, urinary PCR, urinary MCP-1:creatinine ratio, EQ-5D-5L, and SF-36 v2 will be analyzed using a mixed effects model for repeated measures ([…]) with treatment group, visit, treatment-by-visit interaction, and randomization strata (C3GN or DDD, and renal transplant or not) as factors, and baseline as covariate. Patients will be considered as repeated measure units over visits. Point estimates and corresponding 95% confidence intervals will be estimated for the difference between the compound 1 group and the control group across 26 weeks using simple contrast from the model. Similar to the primary endpoint, the second 26 weeks will be compared to the first 26 weeks for the placebo group.

[2] = system: patients with C3 glomerulopathy; assay: Phase 2 placebo-controlled study (ACCOLADE): safety and tolerability; conditions: patients with C3G
Text: The secondary objectives of this study include assessment of: • 1. The safety of compound 1 compared to placebo based on the incidence of adverse events, changes in clinical laboratory measurements, and vital signs; • 2. Changes in laboratory parameters of renal disease including estimated glomerular filtration rate (eGFR), proteinuria, and urinary excretion of monocyte chemoattractant protein-1 (MCP-1) with compound 1 compared to placebo; • 3. Health-related quality-of-life changes based on Short Form-36 version 2 (SF-36 v2) and EuroQOL-5D-5L (EQ-5D-5L) with compound 1 compared to placebo; • 4. Evaluation of the pharmacokinetic profile of compound 1 in patients with C3 glomerulopathy.
Safety assessments include adverse events, physical examination abnormalities, vital signs, and clinical laboratory tests (including blood chemistry, hematology, and urinalysis).
Safety endpoints include: • 1. Patient incidence of treatment-emergent serious adverse events, adverse events, and withdrawals due to adverse events; • 2. Change from baseline and shifts from baseline in all safety laboratory parameters; • 3. Change from baseline in vital signs.

[3] = system: patient with progressive complement 3 (C3) glomerulonephritis (recurrent C3GN in a renal transplant); assay: Special Needs program study of compound 1 in one patient: renal allograft biopsy histology; conditions: for Endocapillary hypercellularity/total: pre-treatment 3/11; for CD68-positive cells/glomerulus: pre-treatment 11; for Immunoflourescence microscopy, IgM: pre-treatment trace
Text: Under the Special Needs program in the United Kingdom (which is similar to a compassionate use protocol in the US), a C3 glomerulonephritis patient received treatment with the orally administered complement inhibitor compound 1, following the protocol detailed below. The patient had refractory disease despite a kidney transplant and prior treatment with the broadly immunosuppressive drugs rituximab, cyclophosphamide, mycophenolate mofetil, tacrolimus, and steroids. Renal allograft biopsies were taken pre-dose, 2 and 7 months during therapy. At the Day 1 and post-Day 1 study visits, blood and urine samples will be collected for safety, efficacy, and pharmacokinetic measurements. Physical examinations and vital signs assessments will be performed throughout the study. Concomitant medication and adverse event assessments will be made at every study visit. If at all possible, a renal biopsy will be performed after an appropriate follow-up period to assess the changes in kidney histology. Efficacy assessments include: • 1. First morning urinary PCR or ACR; • 2. eGFR by Modification of Diet in Renal Disease (MDRD) formula based on serum creatinine; • 3. Plasma and urine pharmacodynamic markers, e.g., MCP-1, C3a, C5a, properdin, and sC5b-9; • 4. Glomerular inflammation (e.g., crescents, inflammatory cell infiltrate, endocapillary proliferation) and C3 deposition in a follow-up renal biopsy sample; Renal biopsies will be analyzed by periodic acid-Schiff (PAS) staining, immunofluorescence staining for C3, C5b-9, and potentially other markers. Electron microscopy may also be performed.

[4] = system: patient with progressive complement 3 (C3) glomerulonephritis (recurrent C3GN in a renal transplant); assay: Special Needs program study of compound 1 in one patient: eGFR and proteinuria; conditions: for eGFR decline / eGFR: eGFR 83 mL/min/1.73 m^2 14 months prior, 46 at start of treatment
Text: Under the Special Needs program in the United Kingdom (which is similar to a compassionate use protocol in the US), a C3 glomerulonephritis patient received treatment with the orally administered complement inhibitor compound 1, following the protocol detailed below. The patient had refractory disease despite a kidney transplant and prior treatment with the broadly immunosuppressive drugs rituximab, cyclophosphamide, mycophenolate mofetil, tacrolimus, and steroids. Renal allograft biopsies were taken pre-dose, 2 and 7 months during therapy. The primary efficacy objective is to evaluate the efficacy of compound 1 based on change from baseline in eGFR (MDRD, Estimated Glomerular Filtration Rate) and proteinuria. This is a clinical study to test the safety, tolerability, and efficacy of compound 1 in a patient with recurrent […] in a renal transplant. The patient will have biopsy proven recurrent […] prior to start of dosing, and be deemed eligible based on the inclusion and exclusion criteria. Screening procedures will include recording of demographics, medical history, medication history, physical examination and vital signs, serum chemistry, hematology, urinalysis (including UPCR measurement), viral screening (if not performed within prior 12 weeks), and estimated glomerular filtration rate (eGFR) assessment based on serum creatinine. The baseline eGFR needs to be at least 25 mL/min/1.73 m^2 for study eligibility. On Day 1, the patient will start compound 1 treatment. Patients will take compound 1 30 mg orally twice daily for an initial period of 84 days. The patient will visit the study center on Days 1, 8, 15, 29, 57, and 85. The compound 1 dose will be taken in the morning optimally within one hour after breakfast and in the evening optimally within one hour after dinner. If the patient's clinical condition stabilizes or improves, and there are no adverse events preventing further treatment, the patient may be treated for another 84-day treatment cycle. The 84-day cycles may be repeated for a total of up to 4 cycles under this protocol. For the 84-day cycles after the first cycle, the patient will visit the study center every 4 weeks. There will be 4-week follow-up period after the patient stops the compound 1 treatment. Efficacy assessments include: • 1. First morning urinary PCR or ACR; • 2. eGFR by Modification of Diet in Renal Disease (MDRD) formula based on serum creatinine; • 3. Plasma and urine pharmacodynamic markers, e.g., MCP-1, C3a, C5a, properdin, and sC5b-9; • 4. Glomerular inflammation (e.g., crescents, inflammatory cell infiltrate, endocapillary proliferation) and C3 deposition in a follow-up renal biopsy sample;

[5] = system: patients with C3 glomerulopathy; assay: Phase 2 placebo-controlled study (ACCOLADE): C3G Histologic Index from kidney biopsies
Experimental: The primary objective is to evaluate the efficacy of compound 1 compared to placebo based on histologic changes in C3G pathology from kidney biopsies taken before and during treatment. Patients will then be randomized, 1:1, to receive 30 mg compound 1 twice daily or matching placebo for 26 weeks in a double-blind, placebo-controlled manner. The 26-week double-blind period will be followed by a 26-week period during which all patients will receive compound 1 treatment. Efficacy assessments include: • 1. Renal histology to determine the C3G Histologic Index (CHI) for disease activity and chronicity; • 2. eGFR calculated by the Modification of Diet in Renal Disease (MDRD) equation from serum creatinine; • 3. First morning urinary PCR; • 4. First morning urinary MCP-1:creatinine ratio; • 5. EQ-5D-5L and SF-36 v2. All renal biopsies will also be analyzed based on hematoxylin-eosin (H&E) staining, periodic acid-Schiff (PAS) staining, trichrome, and Jones methenamine silver staining. These renal biopsies will be evaluated by a central reader, blinded to treatment assignment from either slides or high-resolution electronic images. The central reader will determine the degree of disease activity and chronicity. The primary efficacy endpoint is the percent change from baseline to week 26 in the C3G Histologic Index (CHI) for disease activity. The compound 1 and placebo groups will be compared by ANCOVA with treatment group and randomization strata (C3GN or DDD, and renal transplant or not) as factors, and baseline as covariate. Point estimates and corresponding 95% confidence intervals will be estimated for the difference between the compound 1 and placebo control group. Other efficacy endpoints include: • 1. The percent change from baseline in the CHI for disease chronicity over the placebo-controlled 26-week treatment period; • 2. The change and percent change from baseline in eGFR over the placebo-controlled 26-week treatment period; • 3. The percent change from baseline in urinary PCR over the placebo-controlled 26-week treatment period; • 4. The percent change from baseline in urinary MCP-1:creatinine ratio over the placebo-controlled 26-week treatment period; • 5. Change from baseline in EQ-5D-5L and SF-36 v2 (domains and component scores) over the placebo-controlled 26-week treatment period. The primary endpoint of the study was change from baseline to week 26 in the C3G Histologic Index for Disease Activity, comparing the changes in kidney histology from biopsy sections taken from patients characterized by elevated levels of C5b-9 complement markers in the blood at time of study entry (baseline).

`Cc1ccc(NC(=O)[C@H]2CCCN(C(=O)c3c(C)cccc3F)[C@H]2c2ccc(NC3CCCC3)cc2)cc1C(F)(F)F` [Compound 1, avacopan] was tested, and the “Urinary MCP-1:Creatinine Ratio Percent Change from Baseline” value ([1]; 26-week treatment period, placebo 1%) was −12%, the “Urinary Protein:Creatinine Ratio (Proteinuria) Percent Change from Baseline” value ([1]; 26-week treatment period, placebo −14%) was −26% and the “eGFR improvement from baseline” value ([1]; 26 weeks, subjects with eGFR <60 mL/min/1.73 m^2 at baseline, placebo 6% worsening, P=0.0199) was 13%. For the same molecule, the eGFR mean increase ([1]; 26 weeks, subjects with eGFR <60 mL/min/1.73 m^2 at baseline, placebo decrease of 1.4) was “about 5 mL/min/1.73 m^2”, the “eGFR average increase relative to placebo” value ([1]; after 26 weeks, subjects with eGFR <60 mL/min/1.73 m^2 at baseline) was ~20% and the “eGFR improvement on average from baseline” value ([1]; baseline to week 26, overall, placebo worsened by 6%, P=0.0221) was 5%. The “UPCR (proteinuria) reduction from baseline” value ([1]; end of 26 weeks, placebo 14%) was 26%, the “urinary MCP-1 creatinine ratio versus the placebo group” value ([1]; throughout the 26-week treatment period) was “consistently exhibiting lower levels” and the “UPCR (proteinuria) mean decrease from baseline” value ([1]; week 16, placebo 1% decrease, P<0.05) was 35%. For the same molecule, the safety and tolerability [2] was “safe and well-tolerated”, the Endocapillary hypercellularity/total ([3]; 2 months of therapy) was 0/36 and the CD68-positive cells/glomerulus ([3]; 2 months of therapy) was 2-3. The “Immunoflourescence microscopy, IgM” value ([3]; 2 months of therapy) was “neg”, the Endocapillary hypercellularity/total ([3]; 7 months of therapy) was 0/14 and the CD68-positive cells/glomerulus ([3]; 7 months of therapy) was 1-2. The “Immunoflourescence microscopy, IgM” value ([3]; 7 months of therapy) was “neg”, the glomerular inflammation ([3]; on-treatment biopsy compared to pre-treatment) was “reduced glomerular inflammation” and the “glomerular endocapillary proliferation / hypercellularity” value ([3]; on-treatment kidney biopsy compared to pre-treatment biopsy) was “clearance of glomerular endocapillary proliferation; also recorded: resolution of glomerular endocapillary hypercellularity; also recorded: reduction in endocapillary hypercellularity”. The glomerular inflammatory macrophages ([3]; on-treatment kidney biopsy compared to pre-treatment biopsy, CD68 staining) was “marked decrease; also recorded: reduction in glomerular macrophages”, the eGFR decline ([4]; after 1 month of treatment) was “attenuated” and the Proteinuria drop ([4]; single C3GN patient, compound 1 30 mg orally twice daily) was “approximately 80%”. The “eGFR decline / eGFR” value ([4]; single C3GN patient) was “stabilized eGFR”, the “eGFR decline / eGFR” value ([4]; single C3GN patient, listed as compound 1) was “attenuated or stopped” and the “C3G Index for Disease Chronicity, higher change in placebo group than avacopan” value ([5]; baseline to Week 26) was 26 percentage point. The “C3G Histologic Index for Disease Chronicity, change from baseline” value ([5]; baseline to Week 26, increase = worsening, placebo 58%) was 32%, the “C3G Histologic Index for Disease Activity (C3G Activity Score), improvement on average” value ([5]; baseline to week 26, all C3G subjects (elevated and normal C5b-9), placebo worsened by 26%) was 6% and the “C3G Activity Score, average difference between the two treatment arms” value ([5]; baseline to week 26, elevated C5b-9 patients, avacopan vs placebo, not statistically significant) was “approximately 40%”. The “C3G Histologic Index for Disease Activity (C3G Activity Score), improvement on average” value ([5]; baseline to week 26, patients with elevated C5b-9 at baseline, placebo worsened by 38%) was 2% and the “C3G Histologic Index for Disease Chronicity, mean change from baseline” value ([5]; baseline to week 26, placebo 1.6, P<0.05) was 0.8.
